Laboratory results: patent US8455552B2, “Composition comprising S-allylmercapto-N-acetylcysteine (ASSNAC) for up-regulation of cellular glutathione level” (RAMOT et Tel Aviv University Ltd., priority 2007, dated 2013)
Read-outs that look alike come from different tables or passages of the source.

How the values were obtained:
[1] = tested on: Bovine aortic endothelial cells (EC); assay: Determination of total glutathione in endothelial cell cultures; type: cell-based; conditions: for glutathione cellular level as a function of time: FIG. 2A; for EC50: Bos taurus, Endothelial cell, concentration giving half-maximal increase of glutathione level, read-out: HALF-maximal (effect of increased glutathione level); for Maximal effect (increased glutathione level): concentration giving maximal increase of glutathione level
Procedure: (§1) Bovine aortic endothelial cells (EC) were prepared from bovine aorta, cultured in DMEM supplemented with 5% fetal calf serum, 5% calf serum, 2 mM L-glutamine, 100 U/ml penicillin, 100 μg/ml streptomycin, 12.5 U/ml nystatin and FGF-2 (3 ng/ml; added every 48 hours). Cultures were incubated at 37° C. in a humidified 10% CO2 atmosphere and passages 12-18 were used for experiments.
(§2) EC cultures were incubated in the presence or absence of PDTC, NAC, ASSNAC and their combinations. At the end of the incubation, cells were washed, collected into 10 mM HCl and further lyzed by samples freezing (in liquid nitrogen) and thawing, 3 times. Cell protein was precipitated by addition of SSA (10%) followed by centrifugation at 10,000 g and supernatant was collected for glutathione determination. Total glutathione (GSH+GSSG) was determined by the Anderson recycling method. Briefly, a reaction mixture containing phosphate buffer, EDTA, DTNB, NADPH and glutathione reductase was added to 96-wells plates already containing 20 μl of the experimental samples or a GSSG standard. The plates were shaken and OD at 405 nm was monitored at 10 sec intervals for 130 sec in a micro-plate reader. To determine the GSSG level in the total cellular glutathione, 2-vinylpyridine was used to conjugate GSH and remove it from the mixture followed by total glutathione determination as described above. For normalization, the protein pellet of each sample was lyzed in 0.2 N NaOH and quantified by the Lowry method.

TGF β2 = assay: Gene expression by real-time PCR in EC: TGF β2; type: cell-based, bovine; conditions: 3 hours; ASSNAC 0.2 mM, LPS 1 μg/ml
Description: (§3) Total RNA was collected by EZ-RNA 2 kit, treated with DNAse, converted to cDNA and assayed in triplicate by real-time quantitative PCR using a ABI Prism 7700 Sequence Detector System (Applied Biosystem, Foster City, Calif., USA), with Absolute SYBR Green ROX mix and analyzed (SDS 2.1 software). Primers: human glutamate-cysteine-ligase modifier subunit (GCLM)—Forward: 5′[…] GTAAC3′ • and Reverse: 5′[…]3′; • Human heme oxygenase-1 (HO-1)—Forward: 5′[…]3′ • and Reverse: 5′[…]3′; • bovine TGF β2—Forward: […] • and Reverse: […]; • bovine TNF-alfa—Forward: […] • and Reverse: […]; • bovine ICAM-1—Forward: […] • and Reverse: […]; • bovine VCAM-1 Forward: […] • and Reverse: […]. • Results were normalized based on the quantity of human β-actin. Primers—Forward: 5′CCTGGCACCCAGCACAAT3′ and Reverse: 5′[…]3′.
(§4) The effect of ASSNAC on gene expression was further shown to be specific. Endothelial cells (EC) were treated by ASSNAC (0.2 mM) and LPS (1 μg/ml) for 3 hours following by mRNA extraction. The expression of the inflammatory genes TGF β2, ICAM-1, VCAM-1 and TNFα was then studied by Real-Time PCR. […] Only TGF β2 was induced by ASSNAC and to a lesser extent by LPS. TNFα expression was not induced by either ASSNAC or LPS (Table 2B).

ICAM-1 = assay: Gene expression by real-time PCR in EC: ICAM-1; type: cell-based, bovine; conditions: 3 hours; ASSNAC 0.2 mM, LPS 1 μg/ml
Description: as §3, §4

VCAM-1 = assay: Gene expression by real-time PCR in EC: VCAM-1; type: cell-based, bovine; conditions: 3 hours; ASSNAC 0.2 mM, LPS 1 μg/ml
Description: as §3, §4

TNFα = assay: Gene expression by real-time PCR in EC: TNFα; type: cell-based, bovine; conditions: 3 hours; ASSNAC 0.2 mM, LPS 1 μg/ml
Description: as §3, §4

[2] = tested on: Bovine aortic endothelial cells (EC); conditions: from L. Horev-Azaria, Ph.D. Thesis, cited from earlier work
Endothelial cells (EC) = assay: Cytotoxicity test, BuOOH-stimulated cytotoxicity in endothelial cells (Neutral Red); type: cell-based, bovine; conditions: pre-incubation 18 hours; ASSNAC 0.2 mM vs NAC 1 mM and CSSA 0.2 mM; BuOOH 0.1 mM 3 hours
Procedure: as §1
Endothelial cells (EC; 10^4 cells/well) were grown till confluency in fibronectin-coated (5 μg/ml) 96 wells plates. Confluent EC were pre-incubated with ASSNAC 0.2 mM, CSSA 0.2 mM and NAC 1 mM for 18 hours in growth medium at 37° C. Subsequently, cells were washed with serum free DMEM medium and treated with […] ([…]) 0.1 mM for 3 hours. The number of viable cells was determined by Neutral Red (NR) staining method. After removing the culture medium, cells were incubated in NR working solution (1:100 in DCCM) for 2 hours at 37° C. […] Optical density of the dye was determined at 550 nm in an ELISA reader. The cell cytotoxicity was calculated by the following formula: Cytotoxicity (%)=[1−NR uptake in treated wells/NR uptake in control wells]×100 The control (untreated wells) were determined as 0% cytotoxity, the average of triplicates of each treatment is shown.

[3] = tested on: glutamate-cysteine-ligase modifier subunit (GCLM); assay: Gene expression by real-time PCR in EC: GCLM; type: cell-based, bovine; conditions: 3 hours; NAC 2 mM, ASSNAC 0.2 mM
Description: as §3
(§5) Increased expression of the phase II detoxifying enzymes by cells is indicative of increased protection against oxidative stress. In order to determine the effect of NAC and ASSNAC on gene expression in EC, cells were treated with NAC (2 mM) and ASSNAC (0.2 mM) for 3 hours following by extraction of mRNA. The expression of GCLM and HO-1 was then studied by Real-Time PCR. […] Without being bound by any theory or mechanism of action, the GCLM activity and the cystein level are considered to be the rate limiting step of the glutathione synthesis. […]

heme oxygenase-1 (HO-1) = assay: Gene expression by real-time PCR in EC: HO-1; type: cell-based, bovine; conditions: 3 hours; NAC 2 mM, ASSNAC 0.2 mM
Description: as §3, §5

[4] = tested on: human neuroblastomas SH-SY5Y cell line; assay: Cellular glutathione level in SH-SY5Y cultures; type: cell-based
Procedure: In order to establish the potential effect of ASSNAC on glutathione up-regulation in the nerve system as a mean to protect against neurodegenerative diseases the effect of ASSNAC on the human neuroblastomas SH-SY5Y cell line was studied. The cells were cultured in DMEM supplemented with 10% fetal calf serum, 2 mM L-glutamine, 100 U/ml penicillin, 100 μg/ml streptomycin, 12.5 U/ml nystatin. Cultures were incubated at 37° C. in a humidified 10% CO2 atmosphere.
as §2
The effect was observable at a concentration of 0.05 mM with a 2.4-fold maximal increase in glutathione at a concentration of 0.2 mM. The results are presented as mean±SD (n=2). A significant increase in glutathione was determined by ANOVA analysis (p<0.005; FIG. 8A).
Confluent SH-SY5Y cultures were exposed to ASSNAC (0.2 mM) for various time periods. The cultures were then washed and the cellular level of total glutathione was determined. […] The results are presented as mean±SD (n=2). A significant increase in glutathione was determined by ANOVA analysis (p<0.005; FIG. 8B).

[5] = tested on: human neuroblastomas SH-SY5Y cell line; assay: Protection of SH-SY5Y cultures against tBuOOH cytotoxicity (neutral red); conditions: then tBuOOH 1 mM 3 hours
[6] = 24 hours, increasing concentrations

Row | Compound | TGF β2 gene expression (TGF β2) | ICAM-1 gene expression (ICAM-1) | VCAM-1 gene expression (VCAM-1) | TNFα gene expression (TNFα) | Maximal Fold Increase (glutathione level) [1] | glutathione cellular level as a function of time ([1]; 0.2 mM) | concentration of maximal effect on glutathione level [1, 6] [mM] | EC50 [1] [µM] | Maximal effect (increased glutathione level) [1] [µM] | GCLM gene expression [3] | HO-1 gene expression (heme oxygenase-1 (HO-1)) | also measured
1 | S=C(S)N1CCCC1 [PDTC, Pyrrolidine dithiocarbamate] | – | – | – | – | – | – | – | – | – | – | – | reduced glutathione (GSH) versus PDTC concentration ([1]; 24 hours, increasing concentrations, FIG. 6A): concentration dependent increase; concentration of GSH versus time ([1]; PDTC 0.1 mM, increasing time intervals, FIG. 6B): linear increase
2 | lipopolysacharide [LPS] | 5.7 | 19.52 | 104.7 | 0.71 | – | – | – | – | – | – | – | –
3 | C=CCS[S+]([O-])CC=C (centres unmarked) [Allicin] | – | – | – | – | – | – | – | – | – | – | – | Maximal Fold Increase (glutathione level) [2]: 8; Maximal effect (increased glutathione level) [2]: 20 µM; EC50 ([2]; read-out: HALF-maximal (effect of increased glutathione level)): 7 µM
4 | C=CCSSC[C@H](NC(C)=O)C(=O)O [ASSNAC, S-allylmercapto-N-acetylcysteine] | 2.14 | 1.03 | 0.94 | 0.77 | 4 | significant increase in glutathione cellular level | 0.2 | 60 | 200 | 2.3 ± 1.0 (n = 4) | 8.2 ± 4.2 (n = 4) | glutathione level after 24 hours, ASSNAC in comparison to CSSA ([1]; 0.2 mM, 24 hours): higher glutathione level; concentration at which up-regulation of glutathione level starts [1, 6]: 0.05 mM; signs of cytotoxic effect ([1]; up to a concentration of 2.0 mM, 24 hours): without any signs of cytotoxic effect; protection of cells from BuOOH oxidation stress (Endothelial cells (EC)): better protection; concentration at which increase in glutathione is observable ([4]; 24 hours): 0.05 mM; concentration of maximal increase in glutathione ([4]; 24 hours): 0.2 mM; maximal increase in glutathione ([4]; 24 hours, at 0.2 mM): 2.4 fold; time of maximal increase in glutathione ([4]; ASSNAC 0.2 mM): 24 h; cytotoxicity after ASSNAC pretreatment ([5]; ASSNAC 0.2 mM 24 hours): 25%; concentration at which decrease in cytotoxicity starts ([5]; pretreatment 24 hours): 25 µM
5 | C=CCSSC[C@H](N)C(=O)O [CSSA, S-allylmercaptocysteine] | – | – | – | – | 2 | significant increase in glutathione cellular level | – | 70 | 200 | – | – | speed of glutathione response ([1]; 0.2 mM, CSSA compared with ASSNAC): faster response; distribution of glutathione up-regulation between GSH and GSSG ([1]; 0.3 mM CSSA, FIG. 4): increase in GSH but not in GSSG level; GSSG level as share of the total cellular glutathione level ([1]; 0.3 mM CSSA, different time intervals): lower than 2%
6 | CC(=O)N[C@@H](CS)C(=O)O [NAC, N-acetylcysteine] | – | – | – | – | 2.5 | – | 2 | 320 | 500 | 1.0 ± 0.2 (n = 3) | 0.9 ± 0.1 (n = 3) | time to maximal increase in glutathione level ([1]; NAC 2 mM): 6 h
